The numbers were not newly measured in patent US12539267B2, “Product for dyeing keratinous material, containing aminosilicone, a chromophoric compound and organic carbonic acid ester” (Henkel AG & Co. KGaA, priority 2019, dated 2026), which cites them from elsewhere.

The conditions of this data set: 25° C.

Take `O=S(=O)([O-])c1ccc(N=Nc2c(O)ccc3ccccc23)cc1.[Na+]` [Acid Orange 7, sodium salt of 4-[(2-hydroxy-1-naphthyl)azo]benzene sulphonate]: the solubility in water result is given as “more than 7 g/L”.
With `Nc1cc(S(=O)(=O)[O-])cc2cc(S(=O)(=O)[O-])c(N=Nc3ccccc3)c(O)c12.[Na+].[Na+]` [Acid Red 33, diantrium salt of 5-amino-4-hydroxy-3-(phenylazo)-naphthalene-2,7-disulphonate], the solubility in water is 2500 µg/mL.
In the case of `O=C([O-])c1c(Cl)c(Cl)c(Cl)c(Cl)c1-c1c2c(Br)cc(=O)c(Br)c-2oc2c(Br)c(O)cc(Br)c12.O=C([O-])c1c(Cl)c(Cl)c(Cl)c(Cl)c1-c1c2c(Br)cc(=O)c(Br)c-2oc2c(Br)c(O)cc(Br)c12.[Na+].[Na+]` [Acid Red 92, disodium salt of 3,4,5,6-tetrachloro-2-(1,4,5,8-tetrabromo-6-hydroxy-3-oxoxanthen-9-yl)benzoic acid], the solubility in water entry is given as “greater than 10 g/L”.
On to `O=C([O-])C1=NN(c2ccc(S(=O)(=O)[O-])cc2)C(=O)C1N=Nc1ccc(S(=O)(=O)[O-])cc1.[Na+].[Na+].[Na+]` (stereo not shown) [Acid Yellow 23, trisodium salt of 4,5-dihydro-5-oxo-1-(4-sulfophenyl)-4-((4-sulfophenyl)azo)-1H-pyrazole-3-carboxylic acid], for which the “solubility in water (in words)” value is on record as “highly soluble in water”.
